Values quoted from earlier work in US20080260864A1, “Topical Compositions for the Treatment of Depilation-Induced Irritation or Prevention Thereof” (MEDIDERMIS LTD., priority 2005, published 2008).

Tested on: skin / tissue
[1] = Hawley's Condensed Chemical Dictionary

effect of repeated applications (UpToDate drug information) | SMILES | irritancy to tissue [1] | toxicity by ingestion [1] | skin irritation (The Merck Index)
 | [Al+3].[Cl-].[Cl-].[Cl-] [Anhydrous aluminium chloride, Aluminium chloride anhydrous] | powerful irritant | moderately toxic | 
may cause contact dermatitis | S1SSSSSSS1 [Sulfur] |  |  | may cause skin irritation
